What all share (format): in vivo, human
Assay [1] concerns patients with BPH who subsequently underwent surgical treatment. In words: BPH study: single injection, subsequent surgical treatment, Symptom Score (Example Four). An excerpt:
973 patients who had not previously ever undergone surgical procedures for their BPH (including all types of surgical procedures such as transurethral resection of the prostate, laser ablation, microwave, needle ablation, and other minimally invasive surgical treatments) received a double-blind single injection of DRUG or vehicle alone (placebo) and were followed clinically for 2-5 years. All (N=58) patients from the above drug and vehicle alone placebo groups who had not previously undergone surgical treatment for their BPH and who subsequently underwent surgical treatment for their BPH (N=58) were then evaluated for their responses to the surgical procedures.

The test system of assay [2] is patients with BPH not previously on conventional oral medications. In words: BPH study in patients never before on oral BPH medications, injection then oral medications, Symptom Score (Example Two). As to the method:
In a study of 30 patients who had not previously ever taken conventional approved oral medications for their BPH, the patients received a double-blind single injection of DRUG (n=21) or vehicle alone (placebo) (n=9) and were followed clinically for 2-5 years. Patients from both of the above drug and vehicle only placebo groups who had not previously received conventional oral medications and subsequently went on conventional oral medications were evaluated for their responses to the conventional oral BPH medications.

A further assay concerns patients with BPH. In words: Cross-over study: BPH patients on PBS plus oral medication, then additional DRUG injection, IPSS (Example Three). The note with it: same patients after cross-over to DRUG vs PBS + oral medication. As to the method: In another study, patients with BPH were given an intraprostatic injection of PBS pH 7.2 vehicle alone, under double-blind conditions by a urologist in an office setting under ultrasound guidance. Patients were followed for 1 to 3 years with regular physical examinations, laboratory tests, and evaluations of symptoms. Patients who received PBS vehicle alone injections and who subsequently received in addition conventional oral medications used to treat BPH such as alpha blockers were assessed before and after receiving an additional injection of DRUG in phosphate buffered saline pH 7.2 (“PBS”). Symptomatic evaluation was measured by the International Prostate Symptom Score (IPSS) which is a quantitative scale used to gauge prostatic symptomatic improvement or worsening. The difference from baseline IPSS was compared in patients who were given blinded PBS only plus conventional oral medications vs results in the same patients on oral medications after cross-over to DRUG.

For assay [3], the system named is patients with benign prostatic hyperplasia (BPH). In words: Double-blind BPH study, single intraprostatic injection followed by conventional oral BPH medications, IPSS (Example One). As to conditions: NTP peptide plus additional oral medication vs placebo plus additional oral medication. From the text:
In a study of 97 patients who had or had not previously ever taken conventional approved oral medications for their benign prostatic hyperplasia (BPH), the patients received a double-blind single injection of a specific peptide described by the amino acid sequence Ile-Asp-Gln-Gln-Val-Leu-Ser-Arg-Ile-Lys-Leu-Glu-Ile-Lys-Arg-Cys-Leu (hereinafter “DRUG”) (n=61) or vehicle alone (placebo) (n=36) and were followed clinically for 2-5 years. Patients with BPH were given an intraprostatic injection of either a) DRUG in phosphate buffered saline pH 7.2 (“PBS”) or b) PBS alone, under double-blind conditions by a urologist in an office setting under ultrasound guidance. Patients were followed for 2 to 5 years with regular physical examinations, laboratory tests, and evaluations of symptoms. […]
Symptomatic evaluation was measured by the International Prostate Symptom Score (IPSS) which is a quantitative scale used to gauge prostatic symptomatic improvement or worsening. The IPSS quantifies the following: 1) incomplete bladder emptying after urination; 2) frequent urination; 3) stopping and starting during urination; 4) urgent need to urinate; 5) weakness of urinary stream; 6) need to push or strain during urination; 7) need to urinate after going to sleep at night (nocturia). […]

The results in this text go back to patent publication US20160361380A1, “COMBINATION COMPOSITIONS FOR TREATING DISORDERS REQUIRING REMOVAL OR DESTRUCTION OF UNWANTED CELLULAR PROLIFERATIONS” (Nymox Corporation, priority 2015, published 2016).

Ends that are not written are not given here.

Regarding IDQQVLSRIKLEIKRCL [DRUG], the “Mean IPSS Improvement, when compared to the control” value in assay [1] (NTP peptide prior to surgical treatment vs placebo prior to surgery) is “about 142%”; in assay [2] (naive patients, NTP peptide then oral medication vs placebo then oral medication), “about 221%”; in the assay on patients with BPH, “about 110%”; in assay [3] it was “about 40%”. Moreover, the “mean improvement in Symptom Score after surgery” value in assay [1] (single injection, subsequent surgical treatment for BPH, n=31) was determined as 15.3 points. Moreover, the “mean improvement in Symptom Score” value in assay [2] (oral-medication-naive patients, single injection then conventional oral BPH medication, 2-5 years, n=21) worked out at 7.48 points.
